One data set deals with Cyberlindnera jadinii. Nature of the data set: Antifungal activity against Candida utilis ATCC 9950 after 24 hrs by micro broth dilution method. As to conditions: Williopsis jadinii, ATCC 9950, 24 h. Format: functional. (In general: Broth dilution looks for growth in wells or tubes with falling amounts of substance.)
For a further data set, the system named is Candida. The data set is described as follows: Antifungal activity against Candida mycoderma after 24 hrs by micro broth dilution method. Type of data set: functional.
The subject of the next data set is Pseudomonas aeruginosa. The data set is described as follows: Antibacterial activity against Pseudomonas aeruginosa ATCC 27853 after 24 hrs by micro broth dilution method. Type of data set: functional. As to conditions: ATCC 27853, 24 h.
Another data set relates to Candida albicans. Nature of the data set: Antifungal activity against Candida albicans ATCC 90029 after 24 hrs by micro broth dilution method. Format: functional. The note with it: ATCC 90029, 24 h.
The test system of the next data set is Micrococcus luteus. The data set is described as follows: Antibacterial activity against Micrococcus luteus ATCC 4698 after 24 hrs by micro broth dilution method. Format: functional. The note with it: ATCC 4698, 24 h.
Data set [1] relates to Staphylococcus aureus. The data set is described as follows: Antibacterial activity against methicillin-resistant Staphylococcus aureus N315 after 24 hrs by micro broth dilution method. Format: functional. The note with it: N315, 24 h.
Another data set relates to Bacillus sp. Nature of the data set: Antibacterial activity against Bacillus proteus ATCC 13315 after 24 hrs by micro broth dilution method. Format: functional. As to conditions: Bacillus sp. (in: firmicutes), ATCC 13315, 24 h.
Another data set concerns Bacillus spizizenii. The data set is described as follows: Antibacterial activity against Bacillus subtilis ATCC 6633 after 24 hrs by micro broth dilution method. Format: functional. As to conditions: ATCC 6633, 24 h.
The next data set deals with Escherichia coli. The data set is described as follows: Antibacterial activity against Escherichia coli DH52 after 24 hrs by micro broth dilution method. Type of data set: functional. The note with it: DH52, 24 h.
For the next data set, the system named is Aspergillus flavus. The data set is described as follows: Antifungal activity against Aspergillus flavus after 24 hrs by micro broth dilution method. Format: functional.
A further data set deals with Shigella dysenteriae. The data set is described as follows: Antibacterial activity against Shigella dysenteriae ATCC 51252 after 24 hrs by micro broth dilution method. The note with it: ATCC 51252, 24 h. Format: functional.
The subject of data set [2] is Staphylococcus aureus. Nature of the data set: Antibacterial activity against Staphylococcus aureus ATCC 25923 after 24 hrs by micro broth dilution method. Format: functional. As to conditions: ATCC 25923, 24 h.
A short description of data set [3]: Ionization constant, pKa of the compound by UV spectroscopy. Type of data set: physicochemical.

Molecules are shown by their SMILES. In brackets after ≈: the same amount, converted by molar mass.

Usually MIC stands for the least concentration at which growth counts as inhibited. The low end stands for greater potency, the high end for weaker potency. The term pKa denotes the pH at which an ionisable group is half protonated. Read a low pKa as a group that gives up its proton readily.

Take `N#CCN(Cc1ccccc1F)c1ccccc1`: the MIC in the data set with Cyberlindnera jadinii came to 128 µg/mL (≈ 533 µM); in the data set with Candida, 128 µg/mL (≈ 533 µM); against Pseudomonas aeruginosa, 128 µg/mL (≈ 533 µM); against Candida albicans, 128 µg/mL (≈ 533 µM); in the data set on Micrococcus luteus, 256 µg/mL (≈ 1070 µM); in the data set with Staphylococcus aureus [1], 128 µg/mL (≈ 533 µM). The MIC in the data set on Bacillus sp. is 512 µg/mL (≈ 2130 µM); against Bacillus spizizenii, 256 µg/mL (≈ 1070 µM); against Escherichia coli it was 128 µg/mL (≈ 533 µM); in the data set on Aspergillus flavus it was 128 µg/mL (≈ 533 µM); against Shigella dysenteriae, 512 µg/mL (≈ 2130 µM); against Staphylococcus aureus [2], 128 µg/mL (≈ 533 µM).

Regarding `COc1ccc(N(CC#N)Cc2ccc(Cl)cc2Cl)cc1`, the minimum inhibitory concentration (MIC) with Cyberlindnera jadinii amounted to 128 µg/mL (≈ 398 µM); with Candida, 64 µg/mL (≈ 199 µM); in the data set on Pseudomonas aeruginosa, 256 µg/mL (≈ 797 µM); in the data set with Candida albicans, 64 µg/mL (≈ 199 µM); against Micrococcus luteus, 256 µg/mL (≈ 797 µM); in the data set with Staphylococcus aureus [1] it was 128 µg/mL (≈ 398 µM). In addition, the MIC against Bacillus sp. is 128 µg/mL (≈ 398 µM); against Bacillus spizizenii, 256 µg/mL (≈ 797 µM); in the data set with Escherichia coli it was 256 µg/mL (≈ 797 µM); in the data set on Aspergillus flavus it was 128 µg/mL (≈ 398 µM); in the data set with Shigella dysenteriae it was 128 µg/mL (≈ 398 µM); in the data set on Staphylococcus aureus [2] it was 128 µg/mL (≈ 398 µM).

For `N#CCN(Cc1ccc(Cl)c(Cl)c1)c1ccccc1`, the minimum inhibitory concentration (MIC) against Cyberlindnera jadinii is 256 µg/mL (≈ 879 µM); in the data set on Candida it was 128 µg/mL (≈ 440 µM); with Pseudomonas aeruginosa, 256 µg/mL (≈ 879 µM); in the data set with Candida albicans, 64 µg/mL (≈ 220 µM); in the data set on Micrococcus luteus, 256 µg/mL (≈ 879 µM); with Staphylococcus aureus [1] it was 256 µg/mL (≈ 879 µM). For the same compound, the MIC in the data set on Bacillus sp. was determined as 256 µg/mL (≈ 879 µM); in the data set with Bacillus spizizenii, 128 µg/mL (≈ 440 µM); in the data set with Escherichia coli, 256 µg/mL (≈ 879 µM); with Aspergillus flavus, 256 µg/mL (≈ 879 µM); in the data set on Shigella dysenteriae it was 128 µg/mL (≈ 440 µM); against Staphylococcus aureus [2], 256 µg/mL (≈ 879 µM).

For `CCn1cc(C(=O)O)c(=O)c2cc(F)c(N3CCNCC3)cc21` [NORFLOXACIN], the MIC against Pseudomonas aeruginosa was 0.5 µg/mL (≈ 1.57 µM); in the data set on Micrococcus luteus it was 0.5 µg/mL (≈ 1.57 µM); in the data set with Staphylococcus aureus [1], 0.5 µg/mL (≈ 1.57 µM); with Bacillus sp., 1 µg/mL (≈ 3.13 µM); against Bacillus spizizenii, 1 µg/mL (≈ 3.13 µM); against Escherichia coli, 0.5 µg/mL (≈ 1.57 µM). In addition, the MIC was found to be 0.5 µg/mL (≈ 1.57 µM) in the data set on Shigella dysenteriae and 2 µg/mL (≈ 6.26 µM) in the data set on Staphylococcus aureus [2].

For the compound `N#CCN(Cc1ccc(F)cc1)c1ccccc1`, the minimum inhibitory concentration (MIC) against Cyberlindnera jadinii worked out at 128 µg/mL (≈ 533 µM); against Candida it was 128 µg/mL (≈ 533 µM); with Pseudomonas aeruginosa, 256 µg/mL (≈ 1070 µM); against Candida albicans it was 64 µg/mL (≈ 266 µM); with Micrococcus luteus, 512 µg/mL (≈ 2130 µM); in the data set on Staphylococcus aureus [1], 128 µg/mL (≈ 533 µM). Further, the MIC against Bacillus sp. is 256 µg/mL (≈ 1070 µM); against Bacillus spizizenii, 128 µg/mL (≈ 533 µM); against Escherichia coli, 128 µg/mL (≈ 533 µM); against Aspergillus flavus, 128 µg/mL (≈ 533 µM); against Shigella dysenteriae it was 128 µg/mL (≈ 533 µM); in the data set with Staphylococcus aureus [2] it was 256 µg/mL (≈ 1070 µM).

Take `Cc1ccc(N(CC#N)Cc2ccc(F)cc2F)cc1`: the MIC against Cyberlindnera jadinii came out at 128 µg/mL (≈ 470 µM); in the data set on Candida it was 128 µg/mL (≈ 470 µM); against Pseudomonas aeruginosa, 256 µg/mL (≈ 940 µM); against Candida albicans, 64 µg/mL (≈ 235 µM); in the data set on Micrococcus luteus it was 128 µg/mL (≈ 470 µM); with Staphylococcus aureus [1], 256 µg/mL (≈ 940 µM). Further, the MIC is 128 µg/mL (≈ 470 µM) against Bacillus sp.; 256 µg/mL (≈ 940 µM) with Bacillus spizizenii; 128 µg/mL (≈ 470 µM) in the data set with Escherichia coli; 64 µg/mL (≈ 235 µM) in the data set with Aspergillus flavus; 128 µg/mL (≈ 470 µM) in the data set on Shigella dysenteriae; 128 µg/mL (≈ 470 µM) with Staphylococcus aureus [2].

With `Cc1ccc(N(CC#N)Cc2ccc(Cl)cc2Cl)cc1`, the MIC amounted to 64 µg/mL (≈ 210 µM) against Cyberlindnera jadinii; 512 µg/mL (≈ 1680 µM) in the data set with Candida; 256 µg/mL (≈ 839 µM) with Pseudomonas aeruginosa; 64 µg/mL (≈ 210 µM) with Candida albicans; 512 µg/mL (≈ 1680 µM) in the data set with Micrococcus luteus; 128 µg/mL (≈ 419 µM) against Staphylococcus aureus [1]. In addition, the minimal inhibitory concentration (MIC) in the data set on Bacillus sp. worked out at 512 µg/mL (≈ 1680 µM); against Bacillus spizizenii, 512 µg/mL (≈ 1680 µM); against Escherichia coli it was 256 µg/mL (≈ 839 µM); against Aspergillus flavus it was 128 µg/mL (≈ 419 µM); in the data set with Shigella dysenteriae, 256 µg/mL (≈ 839 µM); in the data set on Staphylococcus aureus [2], 128 µg/mL (≈ 419 µM).

Take `N#CCN(Cc1cccc(F)c1)c1ccccc1`: the MIC against Cyberlindnera jadinii was 128 µg/mL (≈ 533 µM); in the data set on Candida, 128 µg/mL (≈ 533 µM); against Pseudomonas aeruginosa, 256 µg/mL (≈ 1070 µM); with Candida albicans, 64 µg/mL (≈ 266 µM); with Micrococcus luteus, 256 µg/mL (≈ 1070 µM); in the data set with Staphylococcus aureus [1], 128 µg/mL (≈ 533 µM). For the same compound, the MIC in the data set with Bacillus sp. came to 128 µg/mL (≈ 533 µM); in the data set on Bacillus spizizenii it was 128 µg/mL (≈ 533 µM); with Escherichia coli, 256 µg/mL (≈ 1070 µM); against Aspergillus flavus, 256 µg/mL (≈ 1070 µM); with Shigella dysenteriae it was 128 µg/mL (≈ 533 µM); in the data set on Staphylococcus aureus [2], 64 µg/mL (≈ 266 µM).

Consider `CCCCCCCCCCCCN(Cc1nnn[nH]1)c1ccccc1`, for which the minimum inhibitory concentration (MIC) in the data set on Cyberlindnera jadinii is 64 µg/mL (≈ 186 µM); in the data set on Candida, 64 µg/mL (≈ 186 µM); in the data set with Pseudomonas aeruginosa, 256 µg/mL (≈ 745 µM); in the data set with Candida albicans, 128 µg/mL (≈ 373 µM); in the data set on Micrococcus luteus it was 128 µg/mL (≈ 373 µM); with Staphylococcus aureus [1], 128 µg/mL (≈ 373 µM). Besides, the minimal inhibitory concentration (MIC) came to 256 µg/mL (≈ 745 µM) against Bacillus sp.; 64 µg/mL (≈ 186 µM) against Bacillus spizizenii; 128 µg/mL (≈ 373 µM) in the data set with Escherichia coli; 32 µg/mL (≈ 93.2 µM) in the data set with Aspergillus flavus; 256 µg/mL (≈ 745 µM) against Shigella dysenteriae; 128 µg/mL (≈ 373 µM) in the data set on Staphylococcus aureus [2]. In addition, the pKa in data set [3] stood at 4.92.

The values are drawn from ChEMBL document CHEMBL3621169, “Synthesis of tetrazole compounds as a novel type of potential antimicrobial agents and their synergistic effects with clinical drugs and interactions with calf thymus DNA” (Medchemcomm, 2015).
